{"source": "paper PMC4696931", "about": "(Advanced healthcare materials, 2015)", "origin": "cited, not measured here", "key": {"MMP2 [1]": {"tested_on": "MMP2", "details": "linker peptide alone"}, "MMP2 [2]": {"tested_on": "MMP2", "details": "PEG hydrogels with the peptide as crosslinker"}}}
{"substance": "SGESPAY↓YTA [NRL1]", "values": [{"measurement": "reported kcat KM^−1 for MMP2", "setting": "MMP2 [1]", "value": 440000, "unit": "M⁻¹ s⁻¹"}, {"measurement": "time to degradation of hydrogels crosslinked with the sequence in MMP2", "setting": "MMP2 [2]", "value": "~ 1 days"}]}
